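Grown in 96-well plates, cells were treated for 48 hours with each compound at five concentrations. Insufficient inhibition: endpoint recorded as highest concentration tested. Abbreviation: GI50, concentration required for 50% inhibition of growth. TGI: total growth inhibition.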
Assays:
Assay in all cases: inhibition of tumour cell growth, NCI panel, 48 h
[1] = tested on: HS 578T breast
[2] = tested on: MDA-MB-231 breast
[3] = tested on: OVCAR-4 ovarian
[4] = tested on: PC-3 prostate
[5] = tested on: RPMI-8226 leukemia
[6] = tested on: SF-268 CNS
[7] = tested on: SF-295 CNS
[8] = tested on: SF-539 CNS
[9] = tested on: T-47D breast
[10] = tested on: UACC-257 melanoma

SMILES | GI50 [1] [µM] | TGI [1] [µM] | GI50 [2] [µM] | TGI [2] [µM] | GI50 [3] [µM] | TGI [3] [µM] | GI50 [4] [µM] | TGI [4] [µM] | GI50 [5] [µM] | TGI [5] [µM] | GI50 [6] [µM] | TGI [6] [µM] | GI50 [7] [µM] | TGI [7] [µM] | GI50 [8] [µM] | TGI [8] [µM] | GI50 [9] [µM] | TGI [9] [µM] | GI50 [10] [µM] | TGI [10] [µM]
NC(=O)NC(=O)CI | 15.8 | 47.8 | 6.99 | 19.9 | 1.77 | 4.08 | 12.6 | 26.8 | 5.38 | 13.1 | 16.2 | 36.4 | 23.9 | > 57.7 | 9.5 | 23 | 1.72 | 3.9 | 3.96 | 13.4
Cc1c2c(nn1-c1ccc(S/N=C3\SCC(=O)CN3c3ccccc3)cc1)-c1ccccc1CC2 | 15.5 | > 50 | 15.4 | > 50 | 37.6 | > 50 | 20.4 | > 50 | 7.85 | > 50 | 20.2 | > 50 | > 50 | > 50 | 22.4 | > 50 | 24.7 | > 50 | 45.3 | > 50
O=Nc1c(-c2cccc([N+](=O)[O-])c2)nc2ncccn12 | 12.8 | 47.4 | 16.4 | 35.2 | 12 | 55.2 | 13.7 | 36.3 | 1.47 | 6.56 | 18.3 | 66.8 | 21.9 | 66.5 | 15.8 | 31 | 6.29 | 39.1 | 12.3 | 26.4
O=c1c2ccccc2nc(-c2ccc(Cl)cc2)n1O | – | > 100 | – | > 100 | – | > 100 | – | > 100 | – | > 100 | – | > 100 | – | 94.1 | – | 64.7 | – | > 100 | – | 88.2
O=C1NC(=NCCc2ccccc2Cl)S/C1=C\c1ccc2ncccc2c1 | 7.03 | > 17 | 10.3 | > 25 | 4.26 | > 14.9 | 6.26 | > 25 | 1.83 | > 25 | 4.68 | > 25 | 2.14 | > 11.2 | 3.13 | 13.2 | 7.34 | > 25 | 11.2 | > 25
NCCOc1ccccn1 | – | > 100 | – | > 100 | – | > 100 | – | > 100 | – | > 100 | – | > 100 | – | > 100 | – | > 100 | – | > 100 | – | > 100
O=C(NC(=S)NS(=O)(=O)c1ccc(N2N=C3c4ccccc4CC3C2c2cccs2)cc1)c1ccccc1 (centres undefined) | 16.1 | 68 | 22.5 | 90.1 | 87.6 | > 100 | 29.7 | > 100 | 29.7 | > 100 | > 100 | > 100 | 25.4 | 78.6 | 27.9 | 84.6 | 69.6 | > 100 | 42.8 | > 100
COc1ccc2c(CNCCCCO)cc3cc4c(cc3c2c1)OCO4 | 0.929 | 4.1 | 2.06 | 6.2 | 2.31 | 7.54 | 0.986 | 7.18 | 0.655 | 3.77 | 0.151 | 1.15 | 0.624 | 4.68 | 1.26 | 4.13 | 3.71 | > 46.7 | 0.823 | 2.88
Cn1c(=O)c(Cc2ccc(F)cc2F)cc2cnc(NC3CCOCC3)nc21 | > 23.6 | > 25 | > 16.2 | > 25 | > 21.7 | > 25 | > 25 | > 25 | > 23.6 | > 25 | > 25 | > 25 | > 25 | > 25 | > 25 | > 25 | 9.47 | > 25 | > 25 | > 25
Cn1c2ccccc2c2c3c(c4c5ccccc5n(CCCCCC#N)c4c21)C(=O)N(O)C3=O | 3.25 | 41.9 | 2.34 | 7.92 | 1.91 | 9.33 | 2.22 | 8.4 | 0.609 | 4.65 | 0.624 | > 100 | 3.03 | 9.71 | 0.295 | 1.1 | 0.419 | 6.89 | 1.65 | 5.22
CSC(=S)N/N=C(\C)c1ccccn1 | 2.82 | 36.3 | 0.113 | 8.98 | < 0.0169 | 10.6 | 0.0452 | > 82.2 | 0.0232 | 16.1 | 0.349 | 14.5 | 0.255 | 8.38 | 0.366 | 3.54 | < 0.01 | 15.2 | 0.159 | 1.55
Cc1nc2cc(O)c(O)cc2cc1Oc1ccc(NC(=O)Nc2ccc(Cl)c(Cl)c2)cc1 | 12.8 | > 32.5 | 2.49 | > 32.5 | 9.73 | > 32.5 | 4.36 | > 32.5 | 7.62 | 20.7 | 8.45 | > 32.5 | 11.4 | > 32.5 | 8.86 | 22.7 | 11.6 | > 32.5 | 7.27 | 21.4
COc1ccc(C2CC(c3cc(OC)c(OC)c(OC)c3)=NN2)cc1 (centres undefined) | 14.4 | 98.3 | 22.5 | > 100 | 12.8 | > 100 | 6.03 | > 100 | 3.23 | 18.6 | 20 | > 100 | 4.99 | > 100 | 5.88 | 36.6 | 3.61 | > 100 | 43.4 | > 100
COC(=O)c1oc2c(C(=O)/C=C/c3ccc(OC)cc3)c(OCCCN3CCCCC3)ccc2c1C | 2.58 | – | 1.69 | 3.78 | 2.49 | 9.15 | 2.39 | 7.02 | 1.72 | 4 | 2.24 | 4.69 | 1.8 | 3.93 | 1.45 | 2.91 | 1.42 | 4.89 | 1.32 | 2.88
COC(=O)c1ccc2c(c1)nc(-c1ccc(Cl)cc1)n2-c1cc(C(C)(C)C)[nH]n1 | 1.72 | 7.16 | 4.62 | 27 | 3.4 | > 100 | 2.93 | 15.7 | 3.93 | 11.2 | 3.29 | 17.8 | 2.48 | 8.98 | 2.54 | 8.95 | 3.64 | > 100 | 4.97 | 22.9
C=C1C(=O)O[C@H]2[C@H]1CC/C(COC(=O)CCC(=O)OC/C1=C/CC[C@@]3(C)O[C@H]3[C@H]3OC(=O)C(=C)[C@@H]3CC1)=C\CC[C@@]1(C)O[C@@H]21 | 2.74 | 16 | 1.65 | 3.72 | 2.07 | 5.9 | 2.58 | 7.86 | 1.22 | 4.16 | 3.18 | 14 | 10.5 | 25.3 | 1.95 | 5.58 | 1.06 | 3.67 | 1.52 | 3.39
Nc1nc(Cl)nc2c1ncn2C1O[C@H](CO)[C@@H](O)[C@@H]1F (some centres undefined) | > 94.2 | > 100 | – | > 100 | > 100 | > 100 | > 24.6 | > 100 | > 31.5 | > 100 | 0.229 | > 54 | 2.87 | > 100 | 3.64 | > 37.9 | 6.94 | > 100 | – | > 100
CCN1C(=O)N(c2c(F)c(OC)cc(OC)c2F)Cc2cnc3[nH]c(CN4CCOCC4)cc3c21 | 1.82 | > 100 | 3.06 | 39.3 | 1.69 | > 100 | 4.34 | > 100 | 3.79 | > 100 | 2.19 | > 100 | 3.83 | > 100 | 1.01 | 13.7 | 3.04 | 25 | 4.69 | > 100
CC(C)(C)c1ccc(-c2nnc(SCc3ccc(Cl)cc3)n2-c2cccc(C(F)(F)F)c2)cc1 | – | > 100 | – | > 100 | – | > 100 | – | > 100 | – | 30.6 | – | > 100 | – | > 100 | – | > 100 | – | > 100 | – | > 72.6
COc1ccc(/C=C(/C(=O)N2CCNCC2)c2cc(OC)c(OC)c(OC)c2)cc1O | 2.42 | 30 | 4.41 | > 100 | 8.15 | > 100 | 2.72 | > 100 | 3.55 | > 100 | 7.23 | > 100 | 5.36 | 60.3 | 2.22 | 6.51 | 6.71 | > 100 | 33.7 | > 100
CC(C)[C@]12O[C@H]1[C@@H]1O[C@]13[C@]1(O[C@H]1C[C@H]1c4c(C(=O)c5ccccc5)oc(OC(=O)c5ccccc5)c4CC[C@@]13C)[C@@H]2O | 0.0303 | 0.996 | 0.0463 | 43.7 | 0.0313 | > 88.4 | 0.0358 | – | < 0.0148 | 1.06 | 0.0338 | 1.6 | 0.0653 | 2.75 | 0.0282 | 0.115 | 0.0281 | 0.916 | 0.0168 | 0.0628
COc1cc2c(/C=C3\C(=O)Nc4ccc(Br)cc43)c(Cl)n(C)c2cc1C | 0.517 | 3.46 | 2.63 | 10.5 | 4.12 | 24.8 | 1.17 | 18.3 | 1.41 | 16.6 | 1.31 | 8 | 0.327 | 1.16 | 1 | 4.71 | 30.8 | > 100 | 7.56 | 31
COc1ccccc1Nc1nc(-c2cc3cccc(C(F)(F)F)c3oc2=O)cs1 | 0.277 | > 81.2 | 0.516 | > 55.9 | 0.185 | > 63.3 | 0.162 | > 100 | 0.24 | > 71.4 | 0.214 | > 100 | 0.0353 | 24.2 | 0.043 | 0.199 | 0.0535 | > 100 | 1.71 | > 100
O=C(Nc1ccccc1Cl)c1ccc(NC2=C(Cl)C(=O)N(Cc3ccccc3)C2=O)cc1 | 32.7 | 69.3 | 31.3 | 91.9 | 78.9 | > 100 | 40 | > 100 | > 100 | > 100 | 23.3 | 55.1 | 26.6 | > 100 | 45.6 | > 100 | 62.4 | > 100 | 38.8 | > 100
COc1ccc(-n2c(N)c(C(=O)NCCN3CCOCC3)c3nc4ccccc4nc32)cc1OC | 9.27 | > 100 | 32.4 | > 100 | 68.5 | > 100 | 11.7 | 87.3 | 3.36 | > 100 | 5.39 | > 100 | – | – | 7.8 | > 100 | 25 | > 100 | 34.4 | > 100

Reference: PubChem BioAssay (NCI)
